Experimental data published in publication PMC12446476 (Nature Communications, 2025).
Converted amounts (≈) assume the structure as drawn. Where two headings read alike, the source gives them in different places.

System: non-gonococcal Neisseria
Assay: MIC determination for non-gonococcal Neisseria, agar dilution
Assay type: cell-based, Neisseria species
Details: read-out: Minimum inhibitory concentration
Description: The 2024 WHO N. gonorrhoeae reference strains were used for quality control. Only whole MIC doubling dilutions are reported. Clinical breakpoints or the epidemiological cutoff (ECOFF, to indicate azithromycin resistance) from EUCAST (v14.0, https://www.eucast.org/clinical_breakpoints) were used to classify isolates as antimicrobial susceptible or resistant. […] Two times the standard inoculum defined by CLSI was used to establish consistent growth in untreated control samples for some strains. In vitro time-kill assays were performed according to CLSI guidelines[65] using Columbia Broth (BD Difco) supplemented with 1% IsoVitaleX Enrichment (BD). Viable bacterial counts were generated by plating 10-fold serially diluted samples on GC agar plates containing 1% IsoVitaleX Enrichment (BD).

## Cc1c(CN(C)C(=O)/C=C/c2cnc3c(c2)N[C@H](C)[C@H](O)C(=O)N3)oc2ccccc12 [Debio 1453]
Neisseria animalis 1, Consensus
  MIC: 0.25 mg/L (≈ 0.595 µM)
Neisseria animalis 1, Replicate 1
  MIC: 0.25 mg/L (≈ 0.595 µM)
Neisseria animalis 1, Replicate 2
  MIC: 0.25 mg/L (≈ 0.595 µM)
Neisseria animalis 1, Replicate 3
  MIC: 0.25 mg/L (≈ 0.595 µM)
Neisseria cinerea 1, Consensus
  MIC: 0.032 mg/L (≈ 0.0761 µM)
Neisseria cinerea 1, Replicate 1
  MIC: 0.032 mg/L (≈ 0.0761 µM)
Neisseria cinerea 1, Replicate 2
  MIC: 0.032 mg/L (≈ 0.0761 µM)
Neisseria cinerea 1, Replicate 3
  MIC: 0.032 mg/L (≈ 0.0761 µM)
Neisseria cinerea 2, Consensus
  MIC: 0.25 mg/L (≈ 0.595 µM)
Neisseria cinerea 2, Replicate 1
  MIC: 0.25 mg/L (≈ 0.595 µM)
Neisseria cinerea 2, Replicate 2
  MIC: 0.25 mg/L (≈ 0.595 µM)
Neisseria cinerea 2, Replicate 3
  MIC: 0.25 mg/L (≈ 0.595 µM)
Neisseria cinerea 3, Consensus
  MIC: 0.008 mg/L (≈ 0.019 µM)
Neisseria cinerea 3, Replicate 1
  MIC: 0.008 mg/L (≈ 0.019 µM)
Neisseria cinerea 3, Replicate 2
  MIC: 0.016 mg/L (≈ 0.0381 µM)
Neisseria cinerea 3, Replicate 3
  MIC: 0.008 mg/L (≈ 0.019 µM)
Neisseria cinerea 6, Consensus
  MIC: 0.016 mg/L (≈ 0.0381 µM)
Neisseria cinerea 6, Replicate 1
  MIC: 0.032 mg/L (≈ 0.0761 µM)
Neisseria cinerea 6, Replicate 2
  MIC: 0.016 mg/L (≈ 0.0381 µM)
Neisseria cinerea 6, Replicate 3
  MIC: 0.016 mg/L (≈ 0.0381 µM)
Neisseria cinerea 7, Consensus
  MIC: 0.5 mg/L (≈ 1.19 µM)
Neisseria cinerea 7, Replicate 1
  MIC: 0.5 mg/L (≈ 1.19 µM)
Neisseria cinerea 7, Replicate 2
  MIC: 0.5 mg/L (≈ 1.19 µM)
Neisseria cinerea 7, Replicate 3
  MIC: 0.5 mg/L (≈ 1.19 µM)
Neisseria cinerea 8, Replicate 1
  MIC: 0.25 mg/L (≈ 0.595 µM)
Neisseria cinerea 9, Consensus
  MIC: 0.5 mg/L (≈ 1.19 µM)
Neisseria cinerea 9, Replicate 1
  MIC: 0.5 mg/L (≈ 1.19 µM)
Neisseria cinerea 9, Replicate 2
  MIC: 0.5 mg/L (≈ 1.19 µM)
Neisseria cinerea 9, Replicate 3
  MIC: 0.5 mg/L (≈ 1.19 µM)
Neisseria elongata 2, Consensus
  MIC: 2 mg/L (≈ 4.76 µM)
Neisseria elongata 2, Replicate 1
  MIC: 2 mg/L (≈ 4.76 µM)
Neisseria elongata 2, Replicate 2
  MIC: 2 mg/L (≈ 4.76 µM)
Neisseria elongata 2, Replicate 3
  MIC: 2 mg/L (≈ 4.76 µM)
Neisseria elongata 3, Consensus
  MIC: 1 mg/L (≈ 2.38 µM)
Neisseria elongata 3, Replicate 1
  MIC: 1 mg/L (≈ 2.38 µM)
Neisseria elongata 3, Replicate 2
  MIC: 1 mg/L (≈ 2.38 µM)
Neisseria elongata 3, Replicate 3
  MIC: 1 mg/L (≈ 2.38 µM)
Neisseria flava 1, Replicate 2
  MIC: 0.064 mg/L (≈ 0.152 µM)
Neisseria flavescens 1, Consensus
  MIC: 0.016 mg/L (≈ 0.0381 µM)
Neisseria flavescens 1, Replicate 1
  MIC: 0.032 mg/L (≈ 0.0761 µM)
Neisseria flavescens 1, Replicate 2
  MIC: 0.016 mg/L (≈ 0.0381 µM)
Neisseria flavescens 1, Replicate 3
  MIC: 0.016 mg/L (≈ 0.0381 µM)
Neisseria flavescens 2, Replicate 2
  MIC: 0.25 mg/L (≈ 0.595 µM)
Neisseria flavescens 3, Consensus
  MIC: 0.25 mg/L (≈ 0.595 µM)
Neisseria flavescens 3, Replicate 1
  MIC: 0.25 mg/L (≈ 0.595 µM)
Neisseria flavescens 3, Replicate 2
  MIC: 0.25 mg/L (≈ 0.595 µM)
Neisseria flavescens 3, Replicate 3
  MIC: 0.25 mg/L (≈ 0.595 µM)
Neisseria flavescens 4, Consensus
  MIC: 0.5 mg/L (≈ 1.19 µM)
Neisseria flavescens 4, Replicate 1
  MIC: 0.25 mg/L (≈ 0.595 µM)
Neisseria flavescens 4, Replicate 2
  MIC: 0.5 mg/L (≈ 1.19 µM)
Neisseria flavescens 4, Replicate 3
  MIC: 0.5 mg/L (≈ 1.19 µM)
Neisseria flavescens 5, Consensus
  MIC: 0.5 mg/L (≈ 1.19 µM)
Neisseria flavescens 5, Replicate 1
  MIC: 0.25 mg/L (≈ 0.595 µM)
Neisseria flavescens 5, Replicate 2
  MIC: 1 mg/L (≈ 2.38 µM)
Neisseria flavescens 5, Replicate 3
  MIC: 0.5 mg/L (≈ 1.19 µM)
Neisseria flavescens 6, Consensus
  MIC: 0.064 mg/L (≈ 0.152 µM)
Neisseria flavescens 6, Replicate 1
  MIC: 0.064 mg/L (≈ 0.152 µM)
Neisseria flavescens 6, Replicate 2
  MIC: 0.064 mg/L (≈ 0.152 µM)
Neisseria flavescens 6, Replicate 3
  MIC: 0.064 mg/L (≈ 0.152 µM)
Neisseria flavescens 7, Consensus
  MIC: 0.5 mg/L (≈ 1.19 µM)
Neisseria flavescens 7, Replicate 1
  MIC: 0.5 mg/L (≈ 1.19 µM)
Neisseria flavescens 7, Replicate 2
  MIC: 0.5 mg/L (≈ 1.19 µM)
Neisseria flavescens 7, Replicate 3
  MIC: 1 mg/L (≈ 2.38 µM)
Neisseria flavescens 8, Replicate 1
  MIC: 0.064 mg/L (≈ 0.152 µM)
Neisseria flavescens 9, Consensus
  MIC: 1 mg/L (≈ 2.38 µM)
Neisseria flavescens 9, Replicate 1
  MIC: 1 mg/L (≈ 2.38 µM)
Neisseria flavescens 9, Replicate 2
  MIC: 1 mg/L (≈ 2.38 µM)
Neisseria flavescens 9, Replicate 3
  MIC: 1 mg/L (≈ 2.38 µM)
Neisseria flavescens 10, Replicate 2
  MIC: 0.25 mg/L (≈ 0.595 µM)
Neisseria flavescens 11, Consensus
  MIC: 0.5 mg/L (≈ 1.19 µM)
Neisseria flavescens 11, Replicate 1
  MIC: 0.5 mg/L (≈ 1.19 µM)
Neisseria flavescens 11, Replicate 2
  MIC: 1 mg/L (≈ 2.38 µM)
Neisseria flavescens 11, Replicate 3
  MIC: 0.5 mg/L (≈ 1.19 µM)
Neisseria flavescens 12, Consensus
  MIC: 0.064 mg/L (≈ 0.152 µM)
Neisseria flavescens 12, Replicate 1
  MIC: 0.064 mg/L (≈ 0.152 µM)
Neisseria flavescens 12, Replicate 2
  MIC: 0.064 mg/L (≈ 0.152 µM)
Neisseria flavescens 13, Consensus
  MIC: 1 mg/L (≈ 2.38 µM)
Neisseria flavescens 13, Replicate 1
  MIC: 1 mg/L (≈ 2.38 µM)
Neisseria flavescens 13, Replicate 2
  MIC: 1 mg/L (≈ 2.38 µM)
Neisseria flavescens 13, Replicate 3
  MIC: 1 mg/L (≈ 2.38 µM)
Neisseria flavescens 14, Consensus
  MIC: 1 mg/L (≈ 2.38 µM)
Neisseria flavescens 14, Replicate 1
  MIC: 1 mg/L (≈ 2.38 µM)
Neisseria flavescens 14, Replicate 2
  MIC: 1 mg/L (≈ 2.38 µM)
Neisseria flavescens 14, Replicate 3
  MIC: 1 mg/L (≈ 2.38 µM)
Neisseria flavescens 15, Consensus
  MIC: 1 mg/L (≈ 2.38 µM)
Neisseria flavescens 15, Replicate 1
  MIC: 1 mg/L (≈ 2.38 µM)
Neisseria flavescens 15, Replicate 2
  MIC: 1 mg/L (≈ 2.38 µM)
Neisseria flavescens 15, Replicate 3
  MIC: 1 mg/L (≈ 2.38 µM)
Neisseria flavescens 16, Consensus
  MIC: 0.25 mg/L (≈ 0.595 µM)
Neisseria flavescens 16, Replicate 1
  MIC: 0.25 mg/L (≈ 0.595 µM)
Neisseria flavescens 16, Replicate 2
  MIC: 0.25 mg/L (≈ 0.595 µM)
Neisseria flavescens 16, Replicate 3
  MIC: 0.25 mg/L (≈ 0.595 µM)
Neisseria flavescens 17, Consensus
  MIC: 1 mg/L (≈ 2.38 µM)
Neisseria flavescens 17, Replicate 1
  MIC: 1 mg/L (≈ 2.38 µM)
Neisseria flavescens 17, Replicate 2
  MIC: 0.5 mg/L (≈ 1.19 µM)
Neisseria flavescens 17, Replicate 3
  MIC: 1 mg/L (≈ 2.38 µM)
Neisseria gonorrhoeae subspecies kochii 1, Consensus
  MIC: 0.016 mg/L (≈ 0.0381 µM)
Neisseria gonorrhoeae subspecies kochii 1, Replicate 1
  MIC: 0.032 mg/L (≈ 0.0761 µM)
Neisseria gonorrhoeae subspecies kochii 1, Replicate 2
  MIC: 0.016 mg/L (≈ 0.0381 µM)
Neisseria gonorrhoeae subspecies kochii 1, Replicate 3
  MIC: 0.016 mg/L (≈ 0.0381 µM)
Neisseria gonorrhoeae subspecies kochii 2, Consensus
  MIC: 0.008 mg/L (≈ 0.019 µM)
Neisseria gonorrhoeae subspecies kochii 2, Replicate 1
  MIC: 0.008 mg/L (≈ 0.019 µM)
Neisseria gonorrhoeae subspecies kochii 2, Replicate 2
  MIC: 0.008 mg/L (≈ 0.019 µM)
Neisseria gonorrhoeae subspecies kochii 2, Replicate 3
  MIC: 0.008 mg/L (≈ 0.019 µM)
Neisseria gonorrhoeae subspecies kochii 3, Consensus
  MIC: 0.008 mg/L (≈ 0.019 µM)
Neisseria gonorrhoeae subspecies kochii 3, Replicate 1
  MIC: 0.008 mg/L (≈ 0.019 µM)
Neisseria gonorrhoeae subspecies kochii 3, Replicate 2
  MIC: 0.008 mg/L (≈ 0.019 µM)
Neisseria gonorrhoeae subspecies kochii 3, Replicate 3
  MIC: 0.008 mg/L (≈ 0.019 µM)
Neisseria lactamica 1, Consensus
  MIC: 0.032 mg/L (≈ 0.0761 µM)
Neisseria lactamica 1, Replicate 1
  MIC: 0.032 mg/L (≈ 0.0761 µM)
Neisseria lactamica 1, Replicate 2
  MIC: 0.064 mg/L (≈ 0.152 µM)
